Assay: Test 3: effect of each of primary ingredients on blood ethanol concentration in rats
Format: in vivo, rat
Conditions: pueraria flower 0.28, phaseoli 0.39, pinelliae 0.09, fructose 1.2 g/kg
Experimental: The 50 g of pueraria flower was finely chopped and extracted with 11 of water at 100° C. for 2.5 hours. The extract was filtered and lyophilized in a freeze dryer. The 10.7 g of the powder was obtained.
The phaseoli radiati semen and pinelliae tuber were extracted and lyophilized in the same manner as described for puerariae flos. The 14.6 g and 7 g of powder were obtained from phaseoli radiati semen and pinelliae tuber, respectively.
The powder of pueraria flower, phaseoli radiati semen, pinelliae tuber, and fructose were dissolved in an adquate volume of water and administered to rats fasted 18 to 24 hours at a dose of 0.28 g, 0.39 g, 0.09 g and 1.2 g/kg body weight, respectively. The rats were treated in the same manner as Test 2.

For `O=C(CO)[C@@H](O)[C@H](O)[C@H](O)CO` [Fructose], the “Alcohol concentration in blood” value (1 hr after 3 g/kg ethanol) was 1.984 g/L, the “Alcohol concentration in blood” value (2 hr after 3 g/kg ethanol) was 1.654 g/L and the “Alcohol concentration in blood” value (4 hr after 3 g/kg ethanol) was 0.724 g/L. For the same compound, the “Alcohol concentration in blood” value (6 hr after 3 g/kg ethanol) was 0.325 g/L.

Reference: patent publication US5324516A, “Galenic composition for decreasing blood alcohol concentration” (priority 1991, dated 1994)
